# Key:
# [1] = In vivo tolerability; parameters: species or system mice; details: administered intraperitoneally
# Excerpt: Breast cancer stem-like cells (BCSCs), heterogeneously subsisting as CD24low/CD44high and ALDHhigh subpopulations, are enriched in aggressive breast cancer subtypes and believed to be responsible for driving metastatic colonization. Despite evidence of a clinical association between BCSC and poor prognosis, effective therapeutic means to target this cell population is lacking. We identified SLLN-15 as a compound with selective anti-sternness activity across a panel of cell lines expressing ALDHhigh and CD24low/CD44high markers, including MDA-MB-231, SUM-149PT, BT-20, SKBR3, 4T1 and several anaplastic thyroid cell lines. […] In summary, our data foster that targeting regulatory networks driving sternness represent important therapeutic targets for treating metastatic breast disease.
# [2] = test system: Akt/mTOR pathway in MDA-MB-231 and BT-20 cells; assay: Western blot of the Akt/mTOR pathway; type: cell-based; details: FIG. 4A
# Protocol: (§1) Sub-confluent cells were washed with PBS, lysed in RIPA buffer (50 mM Tris-HCl at pH7.5, 150 mM sodium chloride, 1% tritonX-100, 0.1% SDS, 2 mM EDTA and 25 mM sodium fluoride) supplemented with 1 mM PMSF and protease inhibitor cocktail (Roche) for 10 min on ice and centrifuged (13,000 rpm at 4° C. for 20 min) to separate cell lysate. Cell lysate (50 μg protein, as measured by the Bradford protein assay) was then added with SDS sample buffer (Tris at pH 6.8, 20% glycerol, 5% SDS, bromophenol blue and β-mercaptoethanol) and boiled for 5 min. Samples were then resolved through 13% SDS-PAGE gels, transferred to nitrocellulose membrane, blotted with specific first antibodies at different dilution in cold room overnight, and then amplified with horseradish peroxidase-conjugated secondary antibodies for 1 hour in room temperature and enhanced by chemiluminescence detection system.
# The PI3K/Akt/mTOR pathway is a well-established pathway that is frequently activated in cancer cells and acts as a key negative regulator of autophagy (Schmelzle T et al. TOR, a central controller of cell growth Cell 2000; 103:253-62; Shi J et al. IL10 inhibits starvation-induced autophagy in hypertrophic scar fibroblasts via cross talk between the IL10-IL10R-STAT3 and IL10-AKT-mTOR pathways Cell Death Dis 2016; 7:e2133). […]
# [3] = test system: MDA-MB-231 and BT-20 cells; assay: MTT assay (short-term cell viability); type: cell-based
# Protocol: The short-term effects of SLLN-15 on tumor cell growth were assessed using the 3-(4,5-dimethylthiazol-2-yl)-2,5-diphenylte-trazolium bromide (MTT; Sigma) assay. Cells were seeded at a density of 5000 cells/well in a 96-well plate and treated with SLLN-15 as indicated concentration or DMSO for 24 hours. MTT solution (5 mg/ml in RPMI 1640 medium) was added (20 μl/well), and plates were incubated for 4 hours in dark at 37° C., then the purple formazan crystals were then dissolved in 100 μl MTT solvent (4 mM HCl and 0.1% NP-40 in isopropanol). The plates were read on FLUOstar OPTIMA microplate reader (BMG Labtech, Ortenberg, Germany) at 570 nm. Assays were performed in triplicate on three independent experiments.
# [4] = test system: autophagy (LC3) in MDA-MB-231 and BT-20 cells; assay: Autophagy markers: LC3 western blot, LC3 puncta immunofluorescence, mCherry-GFP-LC3 flux; type: cell-based
# Protocol: as §1
# Cells were grown on 18-mm cover glass, placed in 6-well culture plate for 24 hours, rinsed in PBS, fixed with 4% paraformaldehyde/PBS for 10 min, washed twice in PBS with 0.2% TritonX-100, blocked in PBS with 0.2% Triton X-100 containing 1% BSA (Bioshop) and incubated with primary antibodies overnight at 4° C. (all in 1/100 diluted in blocking solution). The cells were washed with PBS containing 0.2% TritonX-100 and subsequently incubated with Alexa Fluor 488-labelled, Alexa Fluor 594-labelled, or Alexa Fluor 647-labelled secondary antibodies (all were used at 1/500 dilution in blocking solution) for 1 hour in room temperature. The nuclei were stained with DAPI (0.1 μg/ml) for 5 min before mounted with aqueous mounting medium. Cells were imaged using WaveFX spinning disk confocal microscope system (Quorum Technologies INC.). Images shown are representative of three independent experiments.
# In order to determine whether SLLN-15 affects autophagy in triple-negative breast cancer cells, we first investigated its effect on the formation of autophagosomes by detecting the conversion of LC3-I to lipidated LC3-II and the distribution of endogenous LC3 puncta, both classic markers of autophagy regulation (Klionsky D J et al. Guidelines for the use and interpretation of assays for monitoring autophagy (3rd edition) Autophagy 2016; 12:1-222). […] In order to visualize the induction of autophagy by SLLN-15, we then used transmission electron microscopy.
# Distinguishing between autophagy inducers and inhibitors is a delicate task, since both cause a build-up of LC3-II and LC3-positive puncta (Mizushima N, et al. Methods in mammalian autophagy research Cell 2010; 140:313-26). Therefore, to further determine the role of SLLN-15 on autophagy, we next investigated its impact on autophagic flux using a tandem monomeric mCherry-GFP-tagged LC3. […] SLLN-15-induced autophagic flux was further examined in the presence or absence of the autophagosome-lysosome fusion inhibitor, chloroquine (CQ) (Mizushima N, et al. Methods in mammalian autophagy research Cell 2010; 140:313-26). […] This observation was further confirmed by detecting the number of LC3 puncta in SLLN-15-treated cells, as compared to SLLN-15 combined with CQ (FIG. 3D).
# [5] = test system: MDA-MB-231 and BT-20 cells; assay: Light microscopy of cell morphology; type: cell-based; details: compared to control cells; more detached and shrunken cells
# Excerpt: FIG. S1 represents the cell morphological changes of MDA-MB-231 and BT-20 upon SLLN-15 treatment as visualized by light microscopy.
# Within our quest to develop effective novel anti-cancer drug for TNBCs, we designed and synthesized a library of compounds derived from seleno-purine scaffolds. A high-throughput screening of major classes of kinases and enzymes involved in carcinogenesis identified a 4-selenomorpholinophenyl- and tetrahydroselenophene-substituted diamino-purines, namely SLLN-15 (FIG. 1A), as a potent small molecule capable of inhibiting TNBC cells. […] Subsequent cell-based assays confirmed this small molecule to inhibit the proliferation of two TNBC cell lines, BT-20 and MDA-MB-231.
compound,measurement,setting,value
c1nc2nc(Nc3ccc(N4CC[Se]CC4)cc3)nc(N[C@H]3CC[Se]C3)c2[nH]1 [SLLN-15],tolerability,[1],well-tolerated
same,"phosphorylation levels of Akt, mTOR, p70S6K, S6 and 4EBP1",[2],decreased phosphorylation levels
same,short-term and long-term cell viability (MTT and clonogenic assay),"[3]; SLLN-15 in presence of autophagy inhibitor 3-MA, FIGS. 5D and E",rescued both short-term and long-term cell viability
same,cell viability (MTT),"[3]; time-dependent, SLLN-15 compared with vorinostat, FIG. 6A",markedly decreased cell viability
same,overall cell viability (MTT),"[3]; treatment for 24 hours, dose-dependent, FIG. 1C",markedly decreased overall cell viability
same,"expression level of p62/SQSTM1, Beclin1, Atg5 and Atg7",[4]; FIG. S2,no changes in their expression levels were observed
same,"autophagic flux, mCherry-GFP-tagged LC3","[4]; MDA-MB-231 and BT-20 cells, FIGS. 3A and B",increased formation of yellow fluorescence (autophagosomes) and red fluorescence (autophagolysosomes)
same,LC3-II/LC3-I ratio,"[4]; SLLN-15 combined with chloroquine (CQ), compared to SLLN-15 alone, FIG. 3C",enhanced LC3-II/LC3-I ratio
same,LC3-II/I ratio,"[4]; combination of SLLN-15 with 3-methyladenine (3-MA), FIG. 5C",significantly decreases LC3-II/I ratio
same,LC3-II conversion and LC3 puncta,"[4]; dose-dependent, FIGS. 2A and B",increased LC3-II conversion and LC3 puncta
same,cell morphology,[5],induced obvious morphological changes

# From patent publication US12012408B2, “Purine compounds and method for the treatment of cancer” (THE ROYAL INSTITUTION FOR THE ADVANCEMENT OF …, priority 2018, dated 2024)
